The subject of assay [1] is α7 nAChR. The conditions noted are these: cited from earlier work.
The target in assay [2] is T1, α7 nAChR S36I mutant (Homo sapiens, UniProt P36544, S58I). The experiment in a line: Concentration-response curves. The note with it: for Imax: maximal response relative to the maximal response from ACh (ACh = 1); for pEC50: net charge CRC, parenthetical = curve-fit error. The class given is cell-based.
Assay [3] addresses T2, α7 nAChR S36A mutant (Homo sapiens, UniProt P36544, S58A). In words: Concentration-response curves. The assay is classed as cell-based. The conditions noted are these: for Imax: maximal response relative to the maximal response from ACh (ACh = 1); for pEC50: net charge CRC, parenthetical = curve-fit error.
Assay [4] has as its target T3, α7 nAChR S36G mutant (Homo sapiens, UniProt P36544, S58G). In words: Residual desensitization. The assay is classed as cell-based. The conditions noted are these: read-out: IC50 (RD curve), potency for producing long-lasting desensitization, 12 s applications.
Assay [5] deals with T1, α7 nAChR S36I mutant. The experiment in a line: Residual desensitization. The assay is classed as cell-based. The note with it: read-out: IC50 (RD curve), potency for producing long-lasting desensitization, 12 s applications.
In assay [6] the target is T4, WT α7 nAChR (Homo sapiens, UniProt P36544). In words: Induction of Ds: 30 µM PNU-120596 applied after 5-minute drug bath. The assay is classed as cell-based. The note with it: for desensitized state after high-concentration incubation (PNU-120596 response): high concentration: BA 300 µM, 4MeBA 100 µM.
In assay [7] the target is T5, α7 nAChR S36T mutant (Homo sapiens, UniProt P36544, S58T). In words: Residual desensitization. The assay is classed as cell-based. The conditions noted are these: read-out: IC50 (RD curve), potency for producing long-lasting desensitization, 12 s applications.
The target of assay [8] is T2, α7 nAChR S36A mutant. The experiment in a line: Residual desensitization. The assay is classed as cell-based. The note with it: read-out: IC50 (RD curve), potency for producing long-lasting desensitization, 12 s applications.
Assay [9] has as its target T6, α7 nAChR S36V mutant (Homo sapiens, UniProt P36544, S58V). The experiment in a line: Concentration-response curves. The note with it: for Imax: maximal response relative to the maximal response from ACh (ACh = 1); for pEC50: net charge CRC, parenthetical = curve-fit error. The class given is cell-based.
Assay [10] addresses T4, WT α7 nAChR. In words: Residual desensitization. The class given is cell-based. The note with it: for pIC50: read-out: IC50 (RD curve), potency for producing long-lasting desensitization, 12 s applications.
Assay [11] deals with T7, α7 nAChR S36C mutant (Homo sapiens, UniProt P36544, S58C). In words: Residual desensitization. The class given is cell-based. The note with it: read-out: IC50 (RD curve), potency for producing long-lasting desensitization, 12 s applications.
The target of assay [12] is T7, α7 nAChR S36C mutant. The experiment in a line: Concentration-response curves. The class given is cell-based. The note with it: for Imax: maximal response relative to the maximal response from ACh (ACh = 1); for pEC50: net charge CRC, parenthetical = curve-fit error.
In assay [13] the target is T4, WT α7 nAChR. The experiment in a line: Concentration-response curves. The class given is cell-based. The note with it: for Imax: maximal response relative to the maximal response from ACh (ACh = 1); for pEC50: net charge CRC, potency for agonism, parenthetical = curve-fit error.
The target in assay [14] is T6, α7 nAChR S36V mutant. The experiment in a line: Residual desensitization. The assay is classed as cell-based. The conditions noted are these: read-out: IC50 (RD curve), potency for producing long-lasting desensitization, 12 s applications.
The target of assay [15] is T3, α7 nAChR S36G mutant. The class given is cell-based. The note with it: for Imax: maximal response relative to the maximal response from ACh (ACh = 1); for pEC50: net charge CRC, parenthetical = curve-fit error.
For assay [16], the target named is T5, α7 nAChR S36T mutant. In words: Concentration-response curves. The assay is classed as cell-based. The note with it: for Imax: maximal response relative to the maximal response from ACh (ACh = 1); for pEC50: net charge CRC, parenthetical = curve-fit error.
The target of assay [17] is T4, WT α7 nAChR. The experiment in a line: 5-minute bath incubation, 1 mM ACh probe and post-control ACh applications. The assay is classed as cell-based.
The target in assay [18] is T3, α7 nAChR S36G mutant. The description is as above. The class given is cell-based. The note with it: 30 µM drug bath, 5 minutes, then 1 mM ACh probe.

pEC50, pIC50: −log10 of the molar value. “And” between values parts separate entries of the source, which are not always exact repeats. Identical values can stand only once.

T7 sequence (P36544 23-502 S58C): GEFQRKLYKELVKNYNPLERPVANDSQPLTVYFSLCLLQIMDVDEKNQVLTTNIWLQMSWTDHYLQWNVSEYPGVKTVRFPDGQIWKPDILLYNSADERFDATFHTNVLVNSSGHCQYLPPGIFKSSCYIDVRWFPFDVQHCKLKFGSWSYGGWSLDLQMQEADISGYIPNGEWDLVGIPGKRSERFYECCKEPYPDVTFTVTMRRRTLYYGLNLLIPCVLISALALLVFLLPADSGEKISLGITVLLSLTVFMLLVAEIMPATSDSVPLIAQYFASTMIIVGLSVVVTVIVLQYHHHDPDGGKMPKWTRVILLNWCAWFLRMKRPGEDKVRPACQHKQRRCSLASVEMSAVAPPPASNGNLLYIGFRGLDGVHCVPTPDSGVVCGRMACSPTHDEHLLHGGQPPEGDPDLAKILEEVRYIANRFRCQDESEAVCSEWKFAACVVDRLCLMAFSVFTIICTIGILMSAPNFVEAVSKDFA
T5 sequence (P36544 23-502 S58T): as the sequence (P36544 23-502 S58C) above, with C36T counted along it
T6 sequence (P36544 23-502 S58V): as the sequence (P36544 23-502 S58C) above, with C36V counted along it
T2 sequence (P36544 23-502 S58A): as the sequence (P36544 23-502 S58C) above, with C36A counted along it
T4 sequence (P36544 23-502): as the sequence (P36544 23-502 S58C) above, with C36S counted along it
T1 sequence (P36544 23-502 S58I): as the sequence (P36544 23-502 S58C) above, with C36I counted along it
T3 sequence (P36544 23-502 S58G): as the sequence (P36544 23-502 S58C) above, with C36G counted along it

As for `Oc1ccc(C=C2CCCN=C2c2cccnc2)c(O)c1` [2,4diOHBA, 3-(2,4-dihydroxybenzylidene)anabaseine], the RD production entry in [1] is “practically none”.

For `Cc1ccc(C=C2CCCN=C2c2cccnc2)cc1` [4MeBA, 3-(4-methylbenzylidene)anabaseine], the Imax is reported as 0.088(0.007) in assay [2]; 0.19(0.04) in assay [3]; 0.15(0.04) in assay [9]; 0.14(0.02) in assay [12]; 0.14(0.01) in [13]; 0.31(0.02) in assay [15]. Also, the Imax in assay [16] is recorded as 0.19(0.02). The pEC50 in assay [2] is 4.75; in [3], 5.10; in assay [9], 5.46; in assay [12] it was 5.26; in assay [13], 4.52 and 4.54; in assay [15] it was 5.02. Further, in assay [16], the pEC50 is 4.47. The pIC50 in [4] is 4.29; in [5], 3.82; in assay [7] it was 3.35; in [8] it was 3.84; in [10], 3.96; in [11], 4.28. In addition, the pIC50 in assay [14] was 4.04. The “desensitized state after high-concentration incubation (PNU-120596 response)” value in [6] was “induced exclusively into Di”. In addition, the “reduction of post-control ACh responses” value in [10] (at concentration of greatest evoked response, approximately 300 µM) turned out to be 80%.

Regarding `Oc1ccc(/C=C2\CCCN=C2c2cccnc2)cc1` [4OHBA, (E)-3-(4-hydroxybenzylidene)anabaseine], the Imax in assay [2] was 0.46(0.03); in assay [3], 0.73(0.03); in assay [9], 0.50(0.03); in [12], 0.63(0.02); in assay [13], 0.385(0.006); in assay [15], 0.89(0.06). In addition, in assay [16], the Imax is 0.50(0.01). Moreover, the pEC50 is 5.64 in [2]; 6.24 in assay [3]; 6.60 in [9]; 6.12 in assay [12]; 5.22 and 5.26 in [13]; 6.28 in [15]. Besides, in assay [16], the pEC50 was 5.23. Moreover, the pIC50 in assay [4] was 3.87; in assay [5], below 3.52; in assay [7], below 3.52; in assay [8] it was 3.69; in assay [10], below 3.52; in [11], 3.63. For the same compound, in [14], the negative logarithm of the IC50 (pIC50) was 4.21. Also, the “induction of Ds (response to PNU-120596 after drug bath)” value in [6] (30 µM drug bath, 5 minutes, 30 µM PNU-120596) is listed as “relatively little Ds”. Also, the “recovery during post-control ACh applications after 5-minute incubation” value in [17] (30 µM drug bath, 5 minutes) was “fully recovered”. Besides, the “post-control ACh responses, low versus high concentration incubation” value in assay [17] (4OHBA low 3 µM, high 30 µM) is “no significant difference”. The “reduction of post-control ACh responses” value in assay [10] (at concentrations required for maximal evoked responses, 30 µM – 300 µM) is recorded as 10–20%. Also, in assay [10] (potency for producing long-lasting desensitization, 12 s applications), the “IC50 (RD curve)” value is “far greater than the concentration range studied”. Besides, the “ACh control responses after 5-minute incubation” value in [18] is recorded as “nearly complete suppression of the ACh control responses”.

Turning to `C(=C1CCCN=C1c1cccnc1)c1ccccc1` [BA, benzylidene anabaseine], the Imax in assay [2] was 0.18(0.02); in assay [3], 0.45(0.02); in assay [9], 0.27(0.05); in assay [12], 0.30(0.01); in assay [13], 0.31(0.01); in [15] it was 0.316(0.003). Moreover, in assay [16], the Imax is reported as 0.19(0.01). Besides, the pEC50 in assay [2] was 4.09; in [3] it was 4.57; in assay [9] it was 4.57; in assay [12], 4.66; in assay [13], 4.40 and 4.41; in assay [15], 4.36. In addition, the pEC50 in [16] was 4.17. In addition, the pIC50 in assay [4] is 3.45; in [5], below 3.52; in [7], 3.14; in [8], 4.04; in assay [10], 3.57; in assay [11] it was 3.72. For the same compound, the pIC50 in [14] was 3.66. Moreover, in assay [6], the “desensitized state after high-concentration incubation (PNU-120596 response)” value was “induced exclusively into Di”.

For `COc1ccc(/C=C2\CCCN=C2c2cccnc2)c(OC)c1` [GTS-21, 3-(2,4-dimethoxybenzylidene)anabaseine], in assay [1], the RD production result is recorded as “significant amounts of RD”.

The term pEC50 denotes −log10 of the EC50, conventionally taken in molar units. As usually defined, the pIC50 is −log10 of the IC50, conventionally taken in molar units.
